Results: patent US20260158009A1 (GENZYME CORPORATION, priority 2023, published 2026)

Legend:
[1] = system: U937 cells; assay: Cellular assay in U937 cells: activity of RIPK1 inhibitors on TNFα/zVAD.fmk-induced cell death (necroptosis), CellTiter 96 AQueous (MTS) readout; type: cell-based; details: Homo sapiens, U-937
Summary of the method: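 Necroptosis was measured by viable-cell MTS reduction (4 h, absorbance 490 nm) after overnight (18–24 h) 37° C culture. Cell suspensions of U937 cells carried TNFα (100 ng/ml) plus zVAD.fmk (50 μM) before compound was added. A 10-point curve (10 μM–0.26 nM or 1 μM–0.07 nM) was run in duplicate, normalised to the control lacking TNFα/zVAD.fmk.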

[2] = biological target: T1, hRIPK1 (aa 1-375) fusion protein (Homo sapiens, UniProt Q13546); assay: ADP-Glo kinase assay: catalytic activity of RIPK1 (autophosphorylation, conversion of ATP to ADP); type: biochemical
T1 construct: hRIPK1 (aa 1-375) fusion protein
T1 sequence (Q13546 1-375): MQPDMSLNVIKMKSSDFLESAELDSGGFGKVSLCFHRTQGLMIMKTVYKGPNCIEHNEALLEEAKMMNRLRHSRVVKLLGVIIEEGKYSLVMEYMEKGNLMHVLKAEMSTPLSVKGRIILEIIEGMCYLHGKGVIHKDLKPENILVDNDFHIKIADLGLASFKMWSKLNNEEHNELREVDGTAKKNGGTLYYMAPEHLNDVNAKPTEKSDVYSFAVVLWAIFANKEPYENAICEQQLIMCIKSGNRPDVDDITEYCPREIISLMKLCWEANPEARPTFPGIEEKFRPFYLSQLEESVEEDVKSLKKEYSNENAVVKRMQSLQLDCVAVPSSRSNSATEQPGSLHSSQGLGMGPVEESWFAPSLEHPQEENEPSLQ
Summary of the method: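 hRIPK1 (aa 1-375) fusion protein (3.6 μg/ml final) was preincubated 30 min at rt with compound (33300-1.69 nM, 1% DMSO), then 50 μM ATP was added for 240 min at rt. ADP from autophosphorylation was measured by ADP-Glo luminescence and curves fitted by nonlinear regression.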

Structure (SMILES) | IC50 [1] [nM] | IC50 [2] [nM]
N#Cc1cc(F)cc([C@@H]2CCON2C(=O)[C@H]2CC[C@H](Cn3ccc4nc(C#N)ccc43)CC2)c1 [compound 99, trans-1-[[4-[(3S)-3-(3-cyano-5-fluoro-phenyl)isoxazolidine-2-carbonyl]cyclohexyl]methyl]pyrrolo[3,2-b]pyridine-5-carbonitrile] | 33 | 37
Cc1nn(C[C@H]2CC[C@H](C(=O)N3OCC[C@H]3c3cc(F)cc(C#N)c3)CC2)c2cc(C#N)cc(F)c12 [compound 100, trans-1-((4-((S)-3-(3-cyano-5-fluorophenyl)isoxazolidine-2-carbonyl)cyclohexyl)methyl)-4-fluoro-3-methyl-1H-indazole-6-carbonitrile] | 4 | 17
Cc1nn(C[C@H]2CC[C@H](C(=O)N3OCC[C@H]3c3cc(F)cc(F)c3)CC2)c2cc(C#N)cc(F)c12 [compound 101, trans-1-((4-((S)-3-(3,5-difluorophenyl)isoxazolidine-2-carbonyl)cyclohexyl)methyl)-4-fluoro-3-methyl-1H-indazole-6-carbonitrile] | 4 | 18
Cc1nn(C[C@H]2CC[C@H](C(=O)N3OCC[C@H]3c3cc(F)cc(C#N)c3)CC2)c2cc(C(N)=O)cc(F)c12 [compound 102, trans-1-((4-((S)-3-(3-cyano-5-fluorophenyl)isoxazolidine-2-carbonyl)cyclohexyl)methyl)-4-fluoro-3-methyl-1H-indazole-6-carboxamide] | 37 | 23
Cc1nn(C[C@H]2CC[C@H](C(=O)N3OCC[C@H]3c3cc(F)cc(F)c3)CC2)c2cc(C(N)=O)cc(F)c12 [compound 103, trans-1-((4-((S)-3-(3,5-difluorophenyl)isoxazolidine-2-carbonyl)cyclohexyl)methyl)-4-fluoro-3-methyl-1H-indazole-6-carboxamide] | 22 | 23
N#Cc1cc(F)cc([C@@H]2CCON2C(=O)[C@H]2CC[C@H](Cn3ccc4ccc(C(N)=O)cc43)CC2)c1 [compound 104, trans-1-((4-((S)-3-(3-cyano-5-fluorophenyl)isoxazolidine-2-carbonyl)cyclohexyl)methyl)-1H-indole-6-carboxamide] | 5 | 18
NC(=O)c1ccc2ccn(C[C@H]3CC[C@H](C(=O)N4OCC[C@H]4c4cc(F)cc(F)c4)CC3)c2c1 [compound 105, trans-1-((4-((S)-3-(3,5-difluorophenyl)isoxazolidine-2-carbonyl)cyclohexyl)methyl)-1H-indole-6-carboxamide] | 4 | 15
N#Cc1cncc([C@@H]2CCON2C(=O)[C@H]2CC[C@H](Cn3cnc4ccc(F)cc43)CC2)c1 [compound 106, trans-5-((S)-2-(4-((6-fluoro-1H-benzo[d]imidazol-1-yl)methyl)cyclohexane-1-carbonyl)isoxazolidin-3-yl)nicotinonitrile] | 54 | 46
N#Cc1cncc([C@@H]2CCON2C(=O)[C@H]2CC[C@H](Cn3cnc4cc(F)ccc43)CC2)c1 [compound 107, trans-5-((S)-2-(4-((5-fluoro-1H-benzo[d]imidazol-1-yl)methyl)cyclohexane-1-carbonyl)isoxazolidin-3-yl)nicotinonitrile] | 108 | 39
N#Cc1cncc([C@@H]2CCON2C(=O)[C@H]2CC[C@H](Cn3ccc4ncc(C#N)cc43)CC2)c1 [compound 108, trans-1-((4-((S)-3-(5-cyanopyridin-3-yl)isoxazolidine-2-carbonyl)cyclohexyl)methyl)-1H-pyrrolo[3,2-b]pyridine-6-carbonitrile] | 18 | 27
Cc1ccc(C[C@H]2CC[C@H](C(=O)N3OCC[C@H]3c3cc(F)cc(C#N)c3)CC2)cc1C#N [compound 109, trans-5-((4-((S)-3-(3-cyano-5-fluorophenyl)isoxazolidine-2-carbonyl)cyclohexyl)methyl)-2-methylbenzonitrile] | 1 | 19
Cc1cn(C[C@H]2CC[C@H](C(=O)N3OCC[C@H]3c3cc(F)cc(C#N)c3)CC2)c2cc(C(N)=O)ccc12 [compound 110, trans-1-((4-((S)-3-(3-cyano-5-fluorophenyl)isoxazolidine-2-carbonyl)cyclohexyl)methyl)-3-methyl-1H-indole-6-carboxamide] | 11 | 22
Cc1cn(C[C@H]2CC[C@H](C(=O)N3OCC[C@H]3c3cc(F)cc(F)c3)CC2)c2cc(C(N)=O)ccc12 [compound 111, trans-1-((4-((S)-3-(3,5-difluorophenyl)isoxazolidine-2-carbonyl)cyclohexyl)methyl)-3-methyl-1H-indole-6-carboxamide] | 10 | 27
N#Cc1cc(F)cc([C@@H]2CCON2C(=O)[C@H]2CC[C@H](Cn3cnc4ccc(F)cc43)CC2)c1 [compound 112, trans-3-fluoro-5-((S)-2-(4-((6-fluoro-1H-benzo[d]imidazol-1-yl)methyl)cyclohexane-1-carbonyl)isoxazolidin-3-yl)benzonitrile] | 7 | 23
O=C([C@H]1CC[C@H](Cn2cnc3ccc(F)cc32)CC1)N1OCC[C@H]1c1cc(F)cc(F)c1 [compound 113, trans-((S)-3-(3,5-difluorophenyl)isoxazolidin-2-yl)(4-((6-fluoro-1H-benzo[d]imidazol-1-yl)methyl)cyclohexyl)methanone] | 3 | 24
Cc1ccc([C@@H]2CCON2C(=O)[C@H]2C[C@H](Cn3cnc4cc(F)ccc43)C2)cc1 [compound 114, trans-(3-((5-fluoro-1H-benzo[d]imidazol-1-yl)methyl)cyclobutyl)((S)-3-(p-tolyl)isoxazolidin-2-yl)methanone] | 174 | 34
O=C([C@H]1C[C@H](Cn2cnc3cc(F)ccc32)C1)N1OCC[C@H]1c1cc(F)cc(F)c1 [compound 115, trans-((S)-3-(3,5-difluorophenyl)isoxazolidin-2-yl)(3-((5-fluoro-1H-benzo[d]imidazol-1-yl)methyl)cyclobutyl)methanone] | 138 | 31
N#Cc1cc(F)cc([C@@H]2CCON2C(=O)[C@H]2C[C@H](Cn3cnc4cc(F)ccc43)C2)c1 [compound 116, trans-3-fluoro-5-((S)-2-(3-((5-fluoro-1H-benzo[d]imidazol-1-yl)methyl)cyclobutane-1-carbonyl)isoxazolidin-3-yl)benzonitrile] | 491 | 57
Cc1ccc([C@@H]2CCON2C(=O)[C@H]2CC[C@H](Cn3nc(C)cc3C)CC2)cc1 [compound 117, trans-(4-((3,5-dimethyl-1H-pyrazol-1-yl)methyl)cyclohexyl)((S)-3-(p-tolyl)isoxazolidin-2-yl)methanone] | 54 | 35
Cc1cc(C)n(C[C@H]2CC[C@H](C(=O)N3OCC[C@H]3c3cc(F)cc(F)c3)CC2)n1 [compound 118, trans-((S)-3-(3,5-difluorophenyl)isoxazolidin-2-yl)(4-((3,5-dimethyl-1H-pyrazol-1-yl)methyl)cyclohexyl)methanone] | 30 | 23
